Legend:
[1] = tested on: Neurokinin, NK1; assay type: binding; conditions: 10^−5 M
[2] = biological target: T1, Opiate, Mu (Homo sapiens, UniProt P35372); assay: biochemical; assay type: binding; conditions: read-out: Pass 1 (10^−5 M) % Inhibition
T1 construct: expressed in transfected cells

[3] = biological target: T2, Muscarinic, M4 (Homo sapiens, UniProt P08173); assay: biochemical; assay type: binding; conditions: read-out: Pass 1 (10^−5 M) % Inhibition
T2 construct: expressed in transfected cells

[4] = tested on: Ahenylate Cyclase, Forskolin; assay: Ahenylate Cyclase, Forskolin; [3H]Forskolin; assay type: binding; conditions: 10^−5 M
[5] = biological target: T3, Neurokinin, NK2 (NKA) (Homo sapiens, UniProt P21452); assay: biochemical; assay type: binding; conditions: read-out: Pass 1 (10^−5 M) % Inhibition
T3 construct: expressed in transfected cells

[6] = biological target: Adrenergic, Beta 2 (Homo sapiens, UniProt P07550); assay: biochemical; assay type: binding; conditions: read-out: Pass 1 (10^−5 M) % Inhibition
[7] = biological target: T4, Protein Tyrosine Phosphatase, PTP-LAR-D1 (Homo sapiens, UniProt P10586); assay: Protein Tyrosine Phosphatase, PTP-LAR-D1 (Human); substrate pNPP; assay type: biochemical; conditions: read-out: Pass 1 (10^−5 M) % Inhibition
T4 construct: PTP-LAR-D1

[8] = biological target: Adenosine, A1 (UniProt P25099); assay: Adenosine, A1; [3H]CPX; assay type: binding; conditions: 10^−5 M
[9] = biological target: Neuropeptide, NPY2 (Homo sapiens, UniProt P49146); assay: biochemical; assay type: binding; conditions: read-out: Pass 1 (10^−5 M) % Inhibition
[10] = biological target: T5, Adrenergic, Alpha 2C (Homo sapiens, UniProt P18825); assay: Adrenergic, Alpha 2C (Human Recombinant); [3H]MK-912; assay type: binding; conditions: read-out: Pass 1 (10^−5 M) % Inhibition
T5 construct: expressed in transfected cells

[11] = biological target: T6, Serotonin, 5HT5A (Homo sapiens, UniProt P47898); assay: biochemical; assay type: binding; conditions: read-out: Pass 1 (10^−5 M) % Inhibition
T6 construct: expressed in transfected cells

[12] = biological target: T7, Adrenergic, Beta 1 (Homo sapiens, UniProt P08588); assay: Adrenergic, Beta 1 (Human Recombinant); [125I]Iodocyanopindolol; assay type: binding; conditions: read-out: Pass 1 (10^−5 M) % Inhibition
T7 construct: expressed in transfected cells

[13] = tested on: Histamine, H3; assay: Histamine, H3; [3H]N-a-MeHistamine; assay type: binding; conditions: 10^−5 M
[14] = tested on: Potassium Channel, Ca2+ Act., VS; assay: Potassium Channel, Ca2+ Act., VS; [125I]Charybdotoxin; assay type: binding; conditions: 10^−5 M
[15] = tested on: Potassium Channel, Ca2+ Act., VI; assay: Potassium Channel, Ca2+ Act., VI; [125I]Apamin; assay type: binding; conditions: 10^−5 M
[16] = tested on: Cholecystokinin, CCK1 (CCKA); assay: Cholecystokinin, CCK1 (CCKA); [125I]CCK-8; assay type: binding; conditions: 10^−5 M
[17] = biological target: T8, Vasopressin 1 (Rattus norvegicus, UniProt P30560); assay: biochemical; assay type: binding; conditions: read-out: Pass 1 (10^−5 M) % Inhibition
T8 construct: no other source notation after assay name denotes animal cell or animal tissue source; from tissue

[18] = biological target: Opiate, Delta 1 (UniProt P33533); assay type: binding
[19] = biological target: T9, Cannabinoid, CB1 (Homo sapiens, UniProt P21554); assay: Cannabinoid, CB1 (Human recombinant); [3H]-CP55940; assay type: binding; conditions: read-out: Pass 1 (10^−5 M) % Inhibition
T9 construct: expressed in transfected cells

[20] = biological target: T10, Serotonin, 5HT1B (Rattus norvegicus, UniProt P28564); assay: biochemical; assay type: binding; conditions: read-out: Pass 1 (10^−5 M) % Inhibition
T10 construct: no other source notation after assay name denotes animal cell or animal tissue source; from tissue; host or cells: animal cell or animal tissue, not specified

[21] = tested on: Purinergic, P2Y; assay: Purinergic, P2Y (Human); [35S]-ATPas; assay type: binding; conditions: 10^−5 M
[22] = biological target: Muscarinic, M1 (Homo sapiens, UniProt P11229); assay: biochemical; conditions: read-out: Pass 1 (10^−5 M) % Inhibition
[23] = tested on: Glutamate Transport; assay: Glutamate Transport; [3H]Glutamic Acid; assay type: biochemical; conditions: 10^−5 M
[24] = biological target: Angiotensin II, ATI (Homo sapiens, UniProt P30556); assay: Angiotensin II, ATI (Human); [125I]-(Sar1-Ile8) Angiotensin; assay type: binding; conditions: read-out: Pass 1 (10^−5 M) % Inhibition
[25] = tested on: Adenosine Transport (cs + es); assay: Adenosine Transport (cs + es) (Human); [3H]-Adenosine; assay type: biochemical; conditions: 10^−5 M
[26] = biological target: Norepinephrine Transporter (Rattus norvegicus, UniProt Q9WTR4); assay: biochemical; assay type: binding; conditions: read-out: Pass 1 (10^−5 M) % Inhibition
[27] = tested on: Thyrotropin Releasing Hormone, TRH; assay: Thyrotropin Releasing Hormone, TRH; [3H]-(3MeHis2)TRH; assay type: binding; conditions: 10^−5 M
[28] = tested on: GABA A, Agonist Site; assay type: binding
[29] = biological target: T11, Dopamine, D2s (Homo sapiens, UniProt P14416); assay: Dopamine, D2s (Human Recombinant); [3H]-Spiperone; assay type: binding; conditions: read-out: Pass 1 (10^−5 M) % Inhibition
T11 construct: expressed in transfected cells

[30] = tested on: Choline Acetyltransferase; assay: Choline Acetyltransferase; substrate [14C]Acetyl Coenzyme; assay type: biochemical; conditions: 10^−5 M
[31] = biological target: Adrenergic, Alpha 2A (Homo sapiens, UniProt P08913); assay: Adrenergic, Alpha 2A (Human); [3H]MK-912; assay type: binding; conditions: read-out: Pass 1 (10^−5 M) % Inhibition
[32] = tested on: Nicotinic (a-bungarotoxin insensitive); assay type: binding; conditions: 10^−5 M
[33] = biological target: Opiate, Mu (UniProt P33535); assay type: binding
[34] = biological target: Calcium Channel, Type L (Dihydropyridine Site) (Rattus norvegicus, UniProt P22002); assay: Calcium Channel, Type L (Dihydropyridine Site); [3H]Nitrendipine; assay type: binding; conditions: read-out: Pass 1 (10^−5 M) % Inhibition
[35] = biological target: T12, Opiate, Kappa (Homo sapiens, UniProt P41145); assay: biochemical; assay type: binding; conditions: read-out: Pass 1 (10^−5 M) % Inhibition
T12 construct: expressed in transfected cells

[36] = biological target: T13, Neurotensin (Homo sapiens, UniProt P30989); assay: biochemical; assay type: binding; conditions: read-out: Pass 1 (10^−5 M) % Inhibition
T13 construct: expressed in transfected cells

[37] = biological target: T14, Orphanin (Homo sapiens, UniProt P41146); assay: biochemical; assay type: binding; conditions: read-out: Pass 1 (10^−5 M) % Inhibition
T14 construct: expressed in transfected cells

[38] = tested on: Glutamate, NMDA, Glycine (Stry-insens Site); assay type: binding; conditions: 10^−5 M
[39] = biological target: Serotonin, 5HT2A (Homo sapiens, UniProt P28223); assay: biochemical; assay type: binding; conditions: read-out: Pass 1 (10^−5 M) % Inhibition
[40] = biological target: T15, Endothelin, ET-B (Homo sapiens, UniProt P24530); assay: biochemical; assay type: binding; conditions: read-out: Pass 1 (10^−5 M) % Inhibition
T15 construct: expressed in transfected cells

[41] = tested on: Melatonin; assay: Melatonin; [125I]-2-Iodomelatonin; assay type: binding; conditions: 10^−5 M

Chain of Muscarinic, M1 (P11229 whole entry): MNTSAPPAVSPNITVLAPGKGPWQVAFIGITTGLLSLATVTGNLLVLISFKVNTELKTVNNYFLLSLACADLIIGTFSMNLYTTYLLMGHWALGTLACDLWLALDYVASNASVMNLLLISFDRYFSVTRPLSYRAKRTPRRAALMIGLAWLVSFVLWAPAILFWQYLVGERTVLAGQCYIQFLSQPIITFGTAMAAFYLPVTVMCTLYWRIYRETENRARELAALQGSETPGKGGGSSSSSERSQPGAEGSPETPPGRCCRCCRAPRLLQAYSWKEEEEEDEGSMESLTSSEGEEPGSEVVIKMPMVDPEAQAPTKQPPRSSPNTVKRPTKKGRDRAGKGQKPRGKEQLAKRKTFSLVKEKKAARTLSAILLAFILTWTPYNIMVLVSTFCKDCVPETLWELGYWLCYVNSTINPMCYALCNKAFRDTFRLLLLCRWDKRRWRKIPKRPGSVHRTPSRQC
T8 sequence (P30560 whole entry): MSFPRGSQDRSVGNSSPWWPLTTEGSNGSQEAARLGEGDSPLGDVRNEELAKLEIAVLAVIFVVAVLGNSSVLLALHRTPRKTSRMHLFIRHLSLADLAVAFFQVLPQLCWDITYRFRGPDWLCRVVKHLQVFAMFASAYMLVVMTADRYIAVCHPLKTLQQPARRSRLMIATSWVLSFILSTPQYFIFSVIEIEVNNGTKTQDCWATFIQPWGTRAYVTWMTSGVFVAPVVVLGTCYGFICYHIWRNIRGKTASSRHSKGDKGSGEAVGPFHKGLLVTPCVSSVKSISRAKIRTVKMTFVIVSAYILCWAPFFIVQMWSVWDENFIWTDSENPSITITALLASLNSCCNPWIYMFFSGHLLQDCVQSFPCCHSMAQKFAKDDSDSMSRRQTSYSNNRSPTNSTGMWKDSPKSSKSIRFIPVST
Chain of Calcium Channel, Type L (Dihydropyridine Site) (P22002 whole entry, looked up): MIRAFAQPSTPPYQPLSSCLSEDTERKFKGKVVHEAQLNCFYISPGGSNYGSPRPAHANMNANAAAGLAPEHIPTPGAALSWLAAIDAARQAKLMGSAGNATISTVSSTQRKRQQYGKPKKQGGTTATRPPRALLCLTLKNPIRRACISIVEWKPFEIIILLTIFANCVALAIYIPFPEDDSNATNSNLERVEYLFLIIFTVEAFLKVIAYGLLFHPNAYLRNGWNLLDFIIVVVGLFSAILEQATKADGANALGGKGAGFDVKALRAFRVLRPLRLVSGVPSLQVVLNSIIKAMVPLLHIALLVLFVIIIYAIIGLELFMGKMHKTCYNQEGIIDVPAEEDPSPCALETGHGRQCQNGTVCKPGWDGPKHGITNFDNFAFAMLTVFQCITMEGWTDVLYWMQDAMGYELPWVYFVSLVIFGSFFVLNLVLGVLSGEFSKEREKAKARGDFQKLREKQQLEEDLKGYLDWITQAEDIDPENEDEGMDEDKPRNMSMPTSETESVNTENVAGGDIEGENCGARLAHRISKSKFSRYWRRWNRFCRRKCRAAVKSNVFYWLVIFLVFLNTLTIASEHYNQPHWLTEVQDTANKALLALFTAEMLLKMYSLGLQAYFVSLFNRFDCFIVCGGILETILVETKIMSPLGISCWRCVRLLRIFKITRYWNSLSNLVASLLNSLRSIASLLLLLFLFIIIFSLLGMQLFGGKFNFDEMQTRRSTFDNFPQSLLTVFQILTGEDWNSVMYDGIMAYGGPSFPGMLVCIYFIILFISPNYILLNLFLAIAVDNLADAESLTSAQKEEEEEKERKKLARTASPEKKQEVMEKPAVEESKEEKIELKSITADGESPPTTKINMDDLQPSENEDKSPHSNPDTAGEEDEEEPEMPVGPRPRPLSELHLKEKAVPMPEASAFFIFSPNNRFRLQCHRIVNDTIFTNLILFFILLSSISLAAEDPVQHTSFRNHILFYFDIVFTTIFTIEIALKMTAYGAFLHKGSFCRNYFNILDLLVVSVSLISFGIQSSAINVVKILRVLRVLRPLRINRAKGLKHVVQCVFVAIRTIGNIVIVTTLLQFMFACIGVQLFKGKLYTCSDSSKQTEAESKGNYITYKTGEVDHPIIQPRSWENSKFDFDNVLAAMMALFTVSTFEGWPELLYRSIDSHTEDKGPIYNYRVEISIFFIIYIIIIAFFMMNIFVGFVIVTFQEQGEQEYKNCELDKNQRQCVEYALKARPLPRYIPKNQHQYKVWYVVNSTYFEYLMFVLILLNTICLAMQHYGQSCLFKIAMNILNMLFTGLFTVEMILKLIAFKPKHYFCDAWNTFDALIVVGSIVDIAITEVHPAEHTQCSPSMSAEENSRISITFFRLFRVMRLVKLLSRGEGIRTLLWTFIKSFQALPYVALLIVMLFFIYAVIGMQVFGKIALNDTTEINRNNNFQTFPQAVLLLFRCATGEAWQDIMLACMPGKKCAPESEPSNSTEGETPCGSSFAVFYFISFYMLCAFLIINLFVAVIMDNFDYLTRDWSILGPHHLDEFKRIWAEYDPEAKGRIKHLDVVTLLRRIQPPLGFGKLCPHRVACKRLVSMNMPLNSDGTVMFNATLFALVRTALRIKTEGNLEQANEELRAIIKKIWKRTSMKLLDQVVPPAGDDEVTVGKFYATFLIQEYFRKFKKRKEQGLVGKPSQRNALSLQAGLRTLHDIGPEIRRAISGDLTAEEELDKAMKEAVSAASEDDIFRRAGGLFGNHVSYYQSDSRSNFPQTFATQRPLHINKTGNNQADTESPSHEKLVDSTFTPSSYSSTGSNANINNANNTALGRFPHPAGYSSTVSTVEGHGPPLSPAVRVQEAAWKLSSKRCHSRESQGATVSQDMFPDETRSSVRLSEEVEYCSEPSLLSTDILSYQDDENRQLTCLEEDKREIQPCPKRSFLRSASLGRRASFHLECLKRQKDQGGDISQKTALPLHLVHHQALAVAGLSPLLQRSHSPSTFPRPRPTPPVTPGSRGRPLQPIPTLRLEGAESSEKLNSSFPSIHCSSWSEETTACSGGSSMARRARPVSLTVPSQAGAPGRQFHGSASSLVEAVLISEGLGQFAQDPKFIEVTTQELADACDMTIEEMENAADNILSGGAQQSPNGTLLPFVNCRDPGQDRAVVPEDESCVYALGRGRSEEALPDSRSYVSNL
Chain of Norepinephrine Transporter (Q9WTR4 1-597): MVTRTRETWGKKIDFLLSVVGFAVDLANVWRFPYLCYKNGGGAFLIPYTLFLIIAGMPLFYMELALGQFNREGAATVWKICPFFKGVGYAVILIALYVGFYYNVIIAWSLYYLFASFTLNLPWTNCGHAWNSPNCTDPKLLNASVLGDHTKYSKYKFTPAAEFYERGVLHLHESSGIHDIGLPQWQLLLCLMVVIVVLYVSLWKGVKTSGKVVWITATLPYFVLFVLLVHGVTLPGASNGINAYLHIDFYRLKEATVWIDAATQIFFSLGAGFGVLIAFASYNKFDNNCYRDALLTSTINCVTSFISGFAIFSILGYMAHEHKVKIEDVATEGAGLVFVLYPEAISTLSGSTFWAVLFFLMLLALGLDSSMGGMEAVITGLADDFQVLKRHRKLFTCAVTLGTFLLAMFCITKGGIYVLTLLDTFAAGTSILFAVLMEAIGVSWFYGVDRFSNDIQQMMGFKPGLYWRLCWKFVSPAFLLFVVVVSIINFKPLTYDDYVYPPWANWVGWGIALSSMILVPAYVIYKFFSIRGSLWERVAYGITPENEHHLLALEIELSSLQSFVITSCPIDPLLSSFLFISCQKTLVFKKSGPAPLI
Chain of Opiate, Delta 1 (P33533 whole entry): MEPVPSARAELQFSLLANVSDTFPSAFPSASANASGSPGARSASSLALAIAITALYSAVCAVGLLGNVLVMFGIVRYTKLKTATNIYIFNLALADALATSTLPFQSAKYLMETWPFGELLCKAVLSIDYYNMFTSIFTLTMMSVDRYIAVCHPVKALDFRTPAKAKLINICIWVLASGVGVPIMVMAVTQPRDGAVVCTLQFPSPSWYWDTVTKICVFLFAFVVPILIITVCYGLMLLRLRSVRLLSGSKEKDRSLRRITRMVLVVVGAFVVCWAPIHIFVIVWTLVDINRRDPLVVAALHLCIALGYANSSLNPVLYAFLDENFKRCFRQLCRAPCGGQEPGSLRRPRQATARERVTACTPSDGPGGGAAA
T13 sequence (P30989 whole entry): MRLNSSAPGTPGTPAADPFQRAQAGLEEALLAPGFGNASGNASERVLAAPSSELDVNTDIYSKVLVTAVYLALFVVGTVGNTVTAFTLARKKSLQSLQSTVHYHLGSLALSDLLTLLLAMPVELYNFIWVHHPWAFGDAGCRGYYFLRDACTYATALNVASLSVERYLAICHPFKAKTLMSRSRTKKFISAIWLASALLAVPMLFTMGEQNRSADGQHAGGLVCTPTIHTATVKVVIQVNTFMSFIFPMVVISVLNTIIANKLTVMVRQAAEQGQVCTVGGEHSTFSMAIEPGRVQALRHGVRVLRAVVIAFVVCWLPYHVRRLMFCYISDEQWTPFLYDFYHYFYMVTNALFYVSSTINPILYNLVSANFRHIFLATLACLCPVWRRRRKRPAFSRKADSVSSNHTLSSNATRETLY
T3 sequence (P21452 whole entry): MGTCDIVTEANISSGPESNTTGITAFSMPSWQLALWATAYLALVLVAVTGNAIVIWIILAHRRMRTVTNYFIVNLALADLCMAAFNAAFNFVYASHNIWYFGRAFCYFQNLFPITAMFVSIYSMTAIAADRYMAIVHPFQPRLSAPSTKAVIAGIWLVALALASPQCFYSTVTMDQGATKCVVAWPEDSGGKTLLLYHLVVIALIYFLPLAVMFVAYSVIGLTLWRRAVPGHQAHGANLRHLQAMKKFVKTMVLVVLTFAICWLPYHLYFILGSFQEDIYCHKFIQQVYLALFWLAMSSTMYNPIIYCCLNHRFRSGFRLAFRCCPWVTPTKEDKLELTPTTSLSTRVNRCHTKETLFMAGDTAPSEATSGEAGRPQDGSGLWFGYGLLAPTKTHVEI

Structure (SMILES): COC(=O)[C@H]1[C@@H](OC(=O)c2ccccc2)C[C@@H]2CC[C@H]1N2C [cocaine]
- Pass 1 (10^−5 M) % Inhibition [1]: −1.72%
- inhibition at 10 µM [2]: 3.08%
- inhibition at 10 µM [3]: 0.42%
- Pass 1 (10^−5 M) % Inhibition [4]: 6.27%
- inhibition at 10 µM [5]: 13.7%
- inhibition at 10 µM [6]: -15.6%
- inhibition at 10 µM [7]: 24.4%
- Pass 1 (10^−5 M) % Inhibition [8]: 2.29%
- inhibition at 10 µM [9]: 4.27%
- inhibition at 10 µM [10]: -5.94%
- inhibition at 10 µM [11]: 12%
- inhibition at 10 µM [12]: 11.7%
- Pass 1 (10^−5 M) % Inhibition [13]: −4.60%
- Pass 1 (10^−5 M) % Inhibition [14]: 16.63%
- Pass 1 (10^−5 M) % Inhibition [15]: 11.04%
- Pass 1 (10^−5 M) % Inhibition [16]: 11.15%
- inhibition at 10 µM [17]: 0.98%
- Pass 1 (10^−5 M) % Inhibition [18]: 2.51%
- inhibition at 10 µM [19]: 33.4%
- inhibition at 10 µM [20]: 3.31%
- Pass 1 (10^−5 M) % Inhibition [21]: 16.43%
- inhibition at 10 µM [22]: 23.3%
- Pass 1 (10^−5 M) % Inhibition [23]: 24.20%
- inhibition at 10 µM [24]: 21.2%
- Pass 1 (10^−5 M) % Inhibition [25]: 2.79%
- inhibition at 10 µM [26]: 60%
- Pass 1 (10^−5 M) % Inhibition [27]: −11.95%
- Pass 1 (10^−5 M) % Inhibition [28]: 5.81%
- inhibition at 10 µM [29]: 30.6%
- Pass 1 (10^−5 M) % Inhibition [30]: 8.25%
- inhibition at 10 µM [31]: 15.3%
- Pass 1 (10^−5 M) % Inhibition [32]: 12.28%
- Pass 1 (10^−5 M) % Inhibition [33]: −4.22%
- inhibition at 10 µM [34]: 10.2%
- inhibition at 10 µM [35]: 1.87%
- inhibition at 10 µM [36]: 19.1%
- inhibition at 10 µM [37]: 32.3%
- Pass 1 (10^−5 M) % Inhibition [38]: −1.56%
- inhibition at 10 µM [39]: 23.4%
- inhibition at 10 µM [40]: 0.19%
- Pass 1 (10^−5 M) % Inhibition [41]: 16.13%
